ChEMBL document CHEMBL1201862, “PubChem BioAssay data set” (2004)
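Values below derive from 48-hour exposures of cells grown in 96-well plates, with endpoints linearly interpolated between the two concentrations bracketing the appropriate inhibition level. GI50: concentration for 50% inhibition of growth.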 Calls of active or inactive are those of the source. No stated cut-off is given here; in the data, active = GI50 up to about 1.1 µM and inactive = higher.

Experiments:
Assay in all cases: inhibition of tumour cell growth, NCI panel, 48 h
A498 = system: A498
ACHN = system: ACHN
EKVX = system: EKVX
HCC 2998 = system: HCC 2998
HOP-92 = system: HOP-92
MDA-MB-231 = system: MDA-MB-231
MDA-MB-435 = system: MDA-MB-435
MDA-N = system: MDA-N
MOLT-4 = system: MOLT-4
NCI-H522 = system: NCI-H522
OVCAR-3 = system: OVCAR-3
OVCAR-5 = system: OVCAR-5
PC-3 = system: PC-3
SF-295 = system: SF-295
SN12C = system: SN12C
SNB-75 = system: SNB-75
T47D = system: T47D
UO-31 = system: UO-31
HL-60 = system: HL-60
HOP-62 = system: HOP-62

SMILES | GI50 (A498) | GI50 (ACHN) | GI50 (EKVX) | GI50 (HCC 2998) | GI50 (HOP-92) | GI50 (MDA-MB-231) | GI50 (MDA-MB-435) | GI50 (MDA-N) | GI50 (MOLT-4) | GI50 (NCI-H522) | GI50 (OVCAR-3) | GI50 (OVCAR-5) | GI50 (PC-3) | GI50 (SF-295) | GI50 (SN12C) | GI50 (SNB-75) | GI50 (T47D) | GI50 (UO-31) | GI50 (HL-60) | GI50 (HOP-62)
CN(C)CCOc1ccc(-c2c(Oc3ccccc3)c(=O)oc3ccccc23)cc1 | 13.4 µM (inactive) | 11.9 µM (inactive) | 13.9 µM (inactive) | 6.62 µM (inactive) | 17.2 µM (inactive) | 4.93 µM (inactive) | 4.89 µM (inactive) | 2.19 µM (inactive) | 4.13 µM (inactive) | 11.3 µM (inactive) | 12.4 µM (inactive) | 15 µM (inactive) | 9.93 µM (inactive) | 4.42 µM (inactive) | 14 µM (inactive) | 9.59 µM (inactive) | 12.7 µM (inactive) | 7.33 µM (inactive) | – | –
Nc1ccc2nc3c(nc2c1)C(=O)c1ccccc1-3 | – | > 100 µM (inactive) | > 100 µM (inactive) | > 100 µM (inactive) | > 100 µM (inactive) | > 100 µM (inactive) | > 100 µM (inactive) | > 100 µM (inactive) | 20.3 µM (inactive) | > 100 µM (inactive) | > 100 µM (inactive) | > 100 µM (inactive) | > 100 µM (inactive) | > 100 µM (inactive) | > 100 µM (inactive) | > 100 µM (inactive) | > 100 µM (inactive) | – | > 100 µM (inactive) | > 100 µM (inactive)
CC(=O)C(N1CCCCC1)C(O)(C(F)(F)F)C(F)(F)F (stereo not drawn) | > 100 µM (inactive) | > 100 µM (inactive) | > 100 µM (inactive) | > 100 µM (inactive) | 54.3 µM (inactive) | > 100 µM (inactive) | > 100 µM (inactive) | > 100 µM (inactive) | 24 µM (inactive) | 64 µM (inactive) | 42.4 µM (inactive) | > 100 µM (inactive) | 36.6 µM (inactive) | > 100 µM (inactive) | – | 33.4 µM (inactive) | 43.9 µM (inactive) | > 100 µM (inactive) | > 100 µM (inactive) | –
CC1C[C@]2(C)C(=O)Nc3ccccc3[C@@H]2Nc2ccccc21 (stereo partly drawn) | 20.5 µM (inactive) | 27.1 µM (inactive) | 19.9 µM (inactive) | 33.7 µM (inactive) | 1.95 µM (inactive) | 16.3 µM (inactive) | 24 µM (inactive) | 28.8 µM (inactive) | 17.4 µM (inactive) | – | 17.8 µM (inactive) | 35.6 µM (inactive) | 17.6 µM (inactive) | 31.6 µM (inactive) | 19.5 µM (inactive) | 46.3 µM (inactive) | 42.5 µM (inactive) | 50 µM (inactive) | 36.4 µM (inactive) | 23.7 µM (inactive)
c1ccc(-c2nc(-c3ccccc3SSc3ccccc3-c3nc(-c4ccccc4)nn3-c3ccccc3)n(-c3ccccc3)n2)cc1 | > 100 µM (inactive) | > 100 µM (inactive) | > 100 µM (inactive) | > 100 µM (inactive) | > 100 µM (inactive) | > 100 µM (inactive) | > 100 µM (inactive) | > 100 µM (inactive) | > 100 µM (inactive) | – | > 100 µM (inactive) | > 100 µM (inactive) | > 100 µM (inactive) | > 100 µM (inactive) | > 100 µM (inactive) | > 100 µM (inactive) | > 100 µM (inactive) | > 100 µM (inactive) | > 100 µM (inactive) | > 10 µM (inactive)
O=C1Nc2nccnc2C(=O)N2CCC[C@@H]12 | – | > 100 µM (inactive) | > 100 µM (inactive) | > 100 µM (inactive) | > 100 µM (inactive) | > 100 µM (inactive) | > 100 µM (inactive) | > 100 µM (inactive) | > 100 µM (inactive) | > 100 µM (inactive) | > 100 µM (inactive) | > 100 µM (inactive) | > 100 µM (inactive) | > 100 µM (inactive) | > 100 µM (inactive) | > 100 µM (inactive) | > 100 µM (inactive) | > 100 µM (inactive) | > 100 µM (inactive) | > 100 µM (inactive)
Cc1ccc([S+]([O-])/C=C(\NC(=O)OCc2ccccc2)C(F)(F)F)cc1 (stereo not drawn) | – | 17.8 µM (inactive) | 46.6 µM (inactive) | 37.5 µM (inactive) | 55.8 µM (inactive) | 55.2 µM (inactive) | 22.4 µM (inactive) | 38.6 µM (inactive) | 25.2 µM (inactive) | 29.8 µM (inactive) | 43.6 µM (inactive) | 52 µM (inactive) | 50.4 µM (inactive) | 39.8 µM (inactive) | 45.4 µM (inactive) | 18.8 µM (inactive) | 39.7 µM (inactive) | 21.9 µM (inactive) | 18 µM (inactive) | –
COC1OC(Cn2c(C)nc(Br)c2Br)C(O)C(O)C1O (stereo not drawn) | > 100 µM (inactive) | > 100 µM (inactive) | > 100 µM (inactive) | > 100 µM (inactive) | > 100 µM (inactive) | > 100 µM (inactive) | > 100 µM (inactive) | > 100 µM (inactive) | > 100 µM (inactive) | > 100 µM (inactive) | > 100 µM (inactive) | > 100 µM (inactive) | > 100 µM (inactive) | > 100 µM (inactive) | – | > 100 µM (inactive) | > 100 µM (inactive) | > 100 µM (inactive) | – | > 100 µM (inactive)
CC(C)(C)NC(=S)N/N=C/c1ccccn1 | 2.73 µM (inactive) | < 0.0237 µM (active) | 0.0596 µM (active) | 6.84 µM (inactive) | 2.65 µM (inactive) | 0.223 µM (active) | 3.61 µM (inactive) | 1.58 µM (inactive) | < 0.01 µM (active) | – | < 0.0155 µM (active) | 0.361 µM (active) | < 0.0164 µM (active) | 2.84 µM (inactive) | 3.16 µM (inactive) | > 100 µM (inactive) | < 0.01 µM (active) | 0.259 µM (active) | < 0.01 µM (active) | 0.396 µM (active)
O=C1CCC(=O)N1n1c(Cc2ccc(Cl)cc2)n[nH]c1=O | > 100 µM (inactive) | > 100 µM (inactive) | > 100 µM (inactive) | > 100 µM (inactive) | > 100 µM (inactive) | > 100 µM (inactive) | > 100 µM (inactive) | > 100 µM (inactive) | > 100 µM (inactive) | > 100 µM (inactive) | > 100 µM (inactive) | > 100 µM (inactive) | > 100 µM (inactive) | > 100 µM (inactive) | > 100 µM (inactive) | – | > 100 µM (inactive) | > 100 µM (inactive) | > 100 µM (inactive) | –
Cn1c2c3ccccc3nc-2c(O)c2ccccc21 [HYDROXYCRYPTOLEPINE] | > 100 µM (inactive) | 48.6 µM (inactive) | > 100 µM (inactive) | > 100 µM (inactive) | > 100 µM (inactive) | 85.9 µM (inactive) | > 100 µM (inactive) | > 100 µM (inactive) | 27.7 µM (inactive) | > 100 µM (inactive) | > 100 µM (inactive) | > 100 µM (inactive) | > 100 µM (inactive) | > 100 µM (inactive) | 48.2 µM (inactive) | 34.1 µM (inactive) | > 100 µM (inactive) | > 100 µM (inactive) | – | > 100 µM (inactive)
